Values after ≈ are worked out from the molar mass of the structure shown. Where two headings read alike, the source gives them in different places.

The test system of data set [1] is rhinovirus type 1A (RV-1A). Briefly: Tissue culture testing, rhinovirus type 1A in HeLa cells. The class given is cell-based. The note with it: 48 and 72 hours, NA = not active at the standard test conditions; for EC50: Enterovirus, read-out: RV-1A: lowest concentration of the compound necessary to cause a 50 percent reduction in cytopathic effect. The protocol: (§1) Monolayered HeLa cells in 16 millimeter (mm) tissue culture dishes were treated with 1 ml of culture medium (Eagles medium supplemented with fetal calf serum) containing subject compound at an appropriate concentration or containing no compound at all. Culture media such as those described herein are more fully described in standard texts, as for example, Kuchler's Biochemical Methods in Cell Culture and Virology, Dowden, Hutchinson and Ross, Inc., Stroudsberg, PA (1977). Following treatment, cells were challenged with 0.05 ml of rhinovirus type 1A (RV-1A), rhinovirus type 2 (RV-2) or Coxsackie A21 virus (Cox A21) in culture medium. Some of the compounds were also tested against rhinovirus type 5 (RV-5), rhinovirus type 8 (RV-8) or rhinovirus type 64 (RV-64). Cell controls received no viruses.
(§2) ^2 Lowest concentration of the compound (μg/ml) necessary to cause
Background: Cytopathic effects are the visible damage that an infection or toxin causes in cultured cells.

In data set [2] the test system is rhinovirus type 2 (RV-2). Briefly: Tissue culture testing, rhinovirus type 2 in HeLa cells. The class given is cell-based. As to conditions: 48 and 72 hours, NA = not active at the standard test conditions; for EC50: Enterovirus, read-out: RV-2: lowest concentration of the compound necessary to cause a 50 percent reduction in cytopathic effect. The protocol:
as §1, §2

Data set [3] concerns Coxsackie A21 virus (Cox A21). Briefly: Tissue culture testing, Coxsackie A21 virus in HeLa cells. The class given is cell-based. As to conditions: 48 and 72 hours, NA = not active at the standard test conditions; for EC50: read-out: Cox A21: lowest concentration of the compound necessary to cause a 50 percent reduction in cytopathic effect. The method, then: as §1, §2
The nature of data set [4]: Cytotoxicity in tissue culture testing (HeLa monolayers). As to conditions: human, HeLa cells. The class given is cell-based. The method, then: as §1
^1 Cytotoxicity figures represent the concentration of the compound, […]

Data set [5] relates to Coxsackie A21 virus. The data set is described as follows: Continuous Oral Feeding test in mice challenged IP with Coxsackie A21 virus. The class given is in vivo. As to conditions: for Continuous Oral Feeding X^2 (chi-square, deaths vs control): 0.06 % in diet, 240 h. The method, then:
Some of the compounds were also tested in animals utilizing the following procedure, hereainafter referred to as the "Continuous Oral Feeding" test. Coxsackie A21 virus grown on HeLa cells was administered at a concentration that produces 80 to 100% deaths in mice weighing 8 to 12 grams within 10 days, when the mice are injected (IP) with 0.2 ml of virus preparation. Mice were placed on diets containing test compound dispersed in plain commercially available rodent mash chow at a concentration of 0.06% (weight percent) on day 0. On day 1 the mice were challenged with the virus preparation, 0.2 ml/mouse, (IP). Deaths in both control and experimental groups were recorded for the 10 days and the results analyzed by a chi-square (.chi.^2) test. Chi-square values greater than 3.84 indicate the compound is active (95% confidence level).

[6] abbreviates: observed at 48 and 72 hours post-treatment, read-out: Cytotoxicity: concentration of the compound found to be toxic to the cell.

As to `CC(=O)c1ccc(Oc2cccc(S(C)(=O)=O)n2)cc1` [1-(4-((6-(methylsulfonyl)-2-pyridinyl)oxy)phenyl)ethanone], the “RV-1A: lowest concentration of the compound necessary to cause a 50 percent reduction in cytopathic effect” value in data set [1] is “not active”. The “RV-2: lowest concentration of the compound necessary to cause a 50 percent reduction in cytopathic effect” value in data set [2] was “not active”. For the same molecule, in data set [3], the “Cox A21: lowest concentration of the compound necessary to cause a 50 percent reduction in cytopathic effect” value is reported as “not active”.

As to `CS(=O)(=O)c1ccc(Oc2ccc(Oc3ccccc3)cc2)nc1` [Example 28, 5-(methylsulfonyl)-2-(4-phenoxyphenoxy)pyridine], the MCC in data set [4] (setting [6]) is above 100 µg/mL. In addition, the EC50 stood at 25 µg/mL (≈ 73.2 µM) in data set [2] and 50 µg/mL (≈ 146 µM) in data set [3]. In data set [5] (0.06% in diet, "toxic" = significantly toxic at the indicated dosage), the “Continuous Oral Feeding: toxicity of the test compound at the indicated dosage” value is “toxic”. In data set [5], the “Continuous Oral Feeding X^2 (chi-square, deaths vs control)” value was 6.249.

On to `CC(C)(C)c1ccc(Oc2ccc(S(C)(=O)=O)cn2)cc1` [Example 33, 2-(4-(1,1-dimethylethyl)phenoxy)-5-(methylsulfonyl)pyridine], for which the MCC in data set [4] (setting [6]) was above 100 µg/mL. Also, the EC50 in data set [2] came to 12.5 µg/mL (≈ 40.9 µM). In addition, in data set [5], the “Continuous Oral Feeding X^2 (chi-square, deaths vs control)” value amounted to 4.042.

In the case of `CC(=O)c1ccc(Oc2ccc(S(C)(=O)=O)cn2)cc1` [Example 34, 1-(4-((5-(methylsulfonyl)-2-pyridinyl)oxy)phenyl)ethanone], in data set [4] (setting [6]), the MCC is above 50 µg/mL. Besides, the EC50 in data set [1] amounted to 25 µg/mL (≈ 85.8 µM); in data set [2], 12.5 µg/mL (≈ 42.9 µM). Moreover, the “Continuous Oral Feeding X^2 (chi-square, deaths vs control)” value in data set [5] is 1.727.

With `CSc1ccc(Oc2ccc(S(C)(=O)=O)cn2)cc1` [Example 37, 2-(4-(methylthio)phenoxy)-5-(methylsulfonyl)pyridine], in data set [4] (setting [6]), the MCC is above 50 µg/mL. Also, the EC50 in data set [1] was below 3 µg/mL; in data set [2], below 2 µg/mL; in data set [3] it was 3 µg/mL (≈ 10.2 µM).

In the case of `CCS(=O)(=O)c1ccc(Oc2ccc3c(c2)OCO3)nc1` [Example 41, 5-(ethylsulfonyl)-2-(3,4-methylenedioxyphenoxy)pyridine], in data set [4] (setting [6]), the MCC was at least 50 µg/mL. Further, the EC50 in data set [2] was determined as 25 µg/mL (≈ 81.3 µM).

With `CCS(=O)(=O)c1ccc(Oc2cc(Cl)c(Cl)cc2Cl)nc1` [Example 48, 5-(ethylsulfonyl)-2-(2,4,5-trichlorophenoxy)pyridine], the MCC in data set [4] (setting [6]) was above 50 µg/mL. The EC50 in data set [1] is below 3.12 µg/mL; in data set [2], 3.12 µg/mL (≈ 8.52 µM); in data set [3] it was 6.25 µg/mL (≈ 17 µM).

Regarding `CC(=O)c1ccc(Oc2ccc(S(=O)(=O)C(C)C)cn2)cc1` [Example 52, 1-(4-((5-((1-methylethyl)sulfonyl)-2-pyridinyl)oxy)phenyl)ethanone], in data set [4] (setting [6]), the MCC was at least 50 µg/mL. Further, the EC50 in data set [1] was determined as 50 µg/mL (≈ 157 µM); in data set [2] it was 50 µg/mL (≈ 157 µM); in data set [3], 25 µg/mL (≈ 78.3 µM). Moreover, in data set [5], the “Continuous Oral Feeding X^2 (chi-square, deaths vs control)” value stood at 1.140.

Regarding `CCCCCCS(=O)(=O)c1ccc(Oc2ccc(Br)cc2)nc1` [Example 53, 2-(4-bromophenoxy)-5-(n-hexylsulfonyl)pyridine], the MCC in data set [4] (setting [6]) was above 50 µg/mL. The EC50 in data set [1] was 25 µg/mL (≈ 62.8 µM); in data set [2] it was 25 µg/mL (≈ 62.8 µM); in data set [3], 12.5 µg/mL (≈ 31.4 µM). Moreover, the “Continuous Oral Feeding X^2 (chi-square, deaths vs control)” value in data set [5] is recorded as 2.925.

Turning to `CCCCCCS(=O)(=O)c1ccc(Oc2ccc(Cl)c(Cl)c2)nc1` [Example 54, 2-(3,4-dichlorophenoxy)-5-(n-hexylsulfonyl)pyridine], in data set [4] (setting [6]), the MCC is above 50 µg/mL. In addition, the EC50 in data set [1] and in data set [2] was 12.5 µg/mL (≈ 32.2 µM) in each case. In data set [5], the “Continuous Oral Feeding X^2 (chi-square, deaths vs control)” value stood at 0.162.

As for `CC(=O)c1ccc(Oc2ccc(S(=O)(=O)C3CCCCC3)cn2)cc1` [Example 56, 1-(4-((5-(cyclohexylsulfonyl)-2-pyridinyl)oxy)phenyl)ethanone], in data set [4] (setting [6]), the MCC was determined as 12.5 µg/mL. Also, the EC50 in data set [1] was around 12.5 µg/mL (≈ 34.8 µM); in data set [2], around 12.5 µg/mL (≈ 34.8 µM); in data set [3], 3.12 µg/mL (≈ 8.69 µM). Besides, the “Continuous Oral Feeding X^2 (chi-square, deaths vs control)” value in data set [5] is on record as 0.019.

`O=S(=O)(c1ccc(Oc2ccc(Br)cc2)nc1)C1CCCCC1` [Example 57, 2-(4-bromophenoxy)-5-(cyclohexylsulfonyl)pyridine]: the MCC in data set [4] (setting [6]) came out at 50 µg/mL. Further, the EC50 was 25 µg/mL (≈ 63.1 µM) in data set [1], 25 µg/mL (≈ 63.1 µM) in data set [2] and 6.25 µg/mL (≈ 15.8 µM) in data set [3].

For `O=S(=O)(c1ccc(Oc2ccc(Cl)c(Cl)c2)nc1)C1CCCCC1` [Example 58, 2-(3,4-dichlorophenoxy)-5-(cyclohexylsulfonyl)pyridine], the MCC in data set [4] (setting [6]) was 50 µg/mL. Further, the EC50 in data set [1] came out at 25 µg/mL (≈ 64.7 µM); in data set [2], 12.5 µg/mL (≈ 32.4 µM); in data set [3] it was 25 µg/mL (≈ 64.7 µM).

For `O=C(c1ccccc1)c1ccc(Oc2ccc(S(=O)(=O)C3CCCCC3)cn2)cc1` [Example 59, (4-((5-(cyclohexylsulfonyl)-2-pyridinyl)oxy)phenyl)phenylmethanone], the MCC in data set [4] (setting [6]) was found to be 12.5 µg/mL. Also, the EC50 in data set [1] was 3.12 µg/mL (≈ 7.41 µM); in data set [2], 12.5 µg/mL (≈ 29.7 µM); in data set [3] it was below 3.12 µg/mL.

With `O=C(c1ccccc1)c1ccc(Oc2ccc(S(=O)(=O)Cc3ccccc3)cn2)cc1` [Example 62, phenyl(4-((5-((phenylmethyl)sulfonyl)-2-pyridinyl)oxy)phenyl)methanone], in data set [4] (GI = growth inhibition, read-out: Cytotoxicity: concentration at which the compound inhibited the growth of the tissue culture (GI)), the MCC turned out to be 50 µg/mL. Besides, the EC50 is 25 µg/mL (≈ 58.2 µM) in data set [1] and below 3.12 µg/mL in data set [3]. For the same molecule, the “Continuous Oral Feeding X^2 (chi-square, deaths vs control)” value in data set [5] worked out at 0.066.

Turning to `CS(=O)(=O)c1ccnc(Oc2ccc(Cl)c(Cl)c2)c1` [Example 65, 2-(3,4-dichlorophenoxy)-4-(methylsulfonyl)pyridine], the MCC in data set [4] (setting [6]) was found to be 50 µg/mL. The EC50 in data set [1] was 25 µg/mL (≈ 78.6 µM); in data set [2], 25 µg/mL (≈ 78.6 µM); in data set [3], below 3.12 µg/mL.

Consider `CS(=O)(=O)c1cc(Oc2ccc(Cl)c(Cl)c2)ccn1` [Example 66, 4-(3,4-dichlorophenoxy)-2-(methylsulfonyl)pyridine], for which the MCC in data set [4] (setting [6]) came to 25 µg/mL. The EC50 in data set [1], in data set [2] and in data set [3] was 12.5 µg/mL (≈ 39.3 µM) each time.

As to `CS(=O)(=O)c1cccc(Oc2ccc(Br)cc2)n1` [Example 70, 2-(4-bromophenoxy)-6-(methylsulfonyl)pyridine], the MCC in data set [4] (setting [6]) was 25 µg/mL. Moreover, the EC50 in data set [1] and in data set [2] was 25 µg/mL (≈ 76.2 µM) each time. For the same molecule, the “Continuous Oral Feeding X^2 (chi-square, deaths vs control)” value in data set [5] worked out at 0.035.

`CS(=O)(=O)c1cccnc1Oc1ccc(Cl)c(Cl)c1` [Example 71, 2-(3,4-dichlorophenoxy)-3-(methylsulfonyl)pyridine]: the MCC in data set [4] (setting [6]) came to 50 µg/mL. Besides, the results for the EC50 in data set [1], in data set [2] and in data set [3] were 25 µg/mL (≈ 78.6 µM), 50 µg/mL (≈ 157 µM) and 50 µg/mL (≈ 157 µM), respectively.

With `CS(=O)(=O)c1cccnc1Oc1ccc(C(=O)c2ccccc2)cc1` [Example 72, (4-((3-(methylsulfonyl)-2-pyridinyl)oxy)phenyl)phenylmethanone], the MCC in data set [4] (setting [6]) came out at 25 µg/mL. The values for the EC50 in data set [1], in data set [2] and in data set [3] were 25 µg/mL (≈ 70.7 µM), 25 µg/mL (≈ 70.7 µM) and 12.5 µg/mL (≈ 35.4 µM), respectively.

Take `CCS(=O)(=O)c1cccnc1Oc1ccc(Cl)c(Cl)c1` [Example 73, 2-(3,4-dichlorophenoxy)-3-(ethylsulfonyl)pyridine]: the MCC in data set [4] (setting [6]) came to 25 µg/mL. Besides, the EC50 in data set [1] and in data set [2] was 25 µg/mL (≈ 75.3 µM) throughout.

As for `CSc1cncc(Oc2ccc(Cl)c(Cl)c2)c1` [Example 75, 3-(3,4-dichlorophenoxy)-5-(methylthio)pyridine], the MCC in data set [4] (setting [6]) came out at 6.25 µg/mL. Also, the figures for the EC50 in data set [1], in data set [2] and in data set [3] were 6.25 µg/mL (≈ 21.8 µM), 6.25 µg/mL (≈ 21.8 µM) and 3.12 µg/mL (≈ 10.9 µM), respectively.

Consider `C[S+]([O-])c1cncc(Oc2ccc(Cl)c(Cl)c2)c1` (centres unmarked) [Example 76, 3-(3,4-dichlorophenoxy)-5-(methylsulfinyl)pyridine], for which, in data set [4] (setting [6]), the MCC was 25 µg/mL. Also, the EC50 was 12.5 µg/mL (≈ 41.4 µM) in data set [1], 6.25 µg/mL (≈ 20.7 µM) in data set [2] and 25 µg/mL (≈ 82.7 µM) in data set [3].

For `CS(=O)(=O)c1cncc(Oc2ccc(Cl)c(Cl)c2)c1` [Example 77, 3-(3,4-dichlorophenoxy)-5-(methylsulfonyl)pyridine], the MCC in data set [4] (setting [6]) was above 50 µg/mL. In addition, the EC50 worked out at 6.25 µg/mL (≈ 19.6 µM) in data set [1], 12.5 µg/mL (≈ 39.3 µM) in data set [2] and 3.12 µg/mL (≈ 9.82 µM) in data set [3].

The values above are taken from patent publication US4371537A, “Sulfur-substituted phenoxypyridines having antiviral activity” (The Dow Chemical Company, priority 1981, dated 1983).
